Laboratory results from ChEMBL document CHEMBL5058645, “Data for DCP probe JNJ-6204” (2022).

Key:
[1] = target: AP2-associated protein kinase 1 (Homo sapiens) (UniProt Q2M2I8); assay: AAK1(h) Kinase panel; settings: Compound concentration 1.0 uM, tested as the 2H-labelled form
[2] = target: Tyrosine-protein kinase ABL1 (Homo sapiens) (UniProt P00519); assay: Abl(h) Kinase panel; settings: Compound concentration 1.0 uM, tested as the 2H-labelled form
[3] = target: Tyrosine-protein kinase ABL2 (Homo sapiens) (UniProt P42684); assay: Arg(h) Kinase panel; settings: Compound concentration 1.0 uM, tested as the 2H-labelled form
[4] = target: Aurora kinase A (Homo sapiens) (UniProt O14965); assay: Aurora-A(h) Kinase panel; settings: Compound concentration 1.0 uM, tested as the 2H-labelled form
[5] = target: Serine/threonine-protein kinase BRSK2 (Homo sapiens) (UniProt Q8IWQ3); assay: BrSK2(h) Kinase panel; settings: Compound concentration 1.0 uM, tested as the 2H-labelled form
[6] = target: Calcium/calmodulin-dependent protein kinase type 1 (Homo sapiens) (UniProt Q14012); assay: CaMKI(h) Kinase panel; settings: Compound concentration 1.0 uM, tested as the 2H-labelled form
[7] = target: Calcium/calmodulin-dependent protein kinase type 1G (Homo sapiens) (UniProt Q96NX5); assay: CaMKIgamma(h) Kinase panel; settings: Compound concentration 1.0 uM, tested as the 2H-labelled form
[8] = target: Calcium/calmodulin-dependent protein kinase type II subunit gamma (Homo sapiens) (UniProt Q13555); assay: CaMKIIgamma(h) Kinase panel; settings: Compound concentration 1.0 uM, tested as the 2H-labelled form
Calcium/calmodulin-dependent protein kinase type II subunit gamma (Homo sapiens), sequence (Q13555 whole entry): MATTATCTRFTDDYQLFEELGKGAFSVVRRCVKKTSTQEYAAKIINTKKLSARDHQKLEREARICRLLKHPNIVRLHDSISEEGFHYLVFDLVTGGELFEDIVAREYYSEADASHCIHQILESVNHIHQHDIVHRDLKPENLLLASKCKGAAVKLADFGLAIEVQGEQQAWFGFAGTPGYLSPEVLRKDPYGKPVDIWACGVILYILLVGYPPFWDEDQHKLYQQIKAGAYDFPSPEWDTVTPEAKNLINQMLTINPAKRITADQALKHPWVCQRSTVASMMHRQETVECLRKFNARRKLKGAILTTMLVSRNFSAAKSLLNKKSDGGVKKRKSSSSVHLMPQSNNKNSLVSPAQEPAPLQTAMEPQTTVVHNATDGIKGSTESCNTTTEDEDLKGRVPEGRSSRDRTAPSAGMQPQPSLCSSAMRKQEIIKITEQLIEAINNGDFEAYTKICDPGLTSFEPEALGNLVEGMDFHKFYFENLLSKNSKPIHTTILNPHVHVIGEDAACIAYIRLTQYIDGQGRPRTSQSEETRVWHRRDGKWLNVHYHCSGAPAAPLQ

[9] = target: Cyclin-dependent kinase 2 (Homo sapiens) (UniProt P24941); assay: CDK2/cyclinE(h) Kinase panel; settings: Compound concentration 1.0 uM, tested as the 2H-labelled form
[10] = target: Cyclin-dependent kinase 4 (Homo sapiens) (UniProt P11802); assay: CDK4/cyclinD3(h) Kinase panel; settings: Compound concentration 1.0 uM, tested as the 2H-labelled form
[11] = target: Cyclin-dependent kinase 13 (Homo sapiens) (UniProt Q14004); assay: CDK13/cyclinK(h) Kinase panel; settings: Compound concentration 1.0 uM, tested as the 2H-labelled form
Cyclin-dependent kinase 13 (Homo sapiens), sequence (Q14004 whole entry, looked up): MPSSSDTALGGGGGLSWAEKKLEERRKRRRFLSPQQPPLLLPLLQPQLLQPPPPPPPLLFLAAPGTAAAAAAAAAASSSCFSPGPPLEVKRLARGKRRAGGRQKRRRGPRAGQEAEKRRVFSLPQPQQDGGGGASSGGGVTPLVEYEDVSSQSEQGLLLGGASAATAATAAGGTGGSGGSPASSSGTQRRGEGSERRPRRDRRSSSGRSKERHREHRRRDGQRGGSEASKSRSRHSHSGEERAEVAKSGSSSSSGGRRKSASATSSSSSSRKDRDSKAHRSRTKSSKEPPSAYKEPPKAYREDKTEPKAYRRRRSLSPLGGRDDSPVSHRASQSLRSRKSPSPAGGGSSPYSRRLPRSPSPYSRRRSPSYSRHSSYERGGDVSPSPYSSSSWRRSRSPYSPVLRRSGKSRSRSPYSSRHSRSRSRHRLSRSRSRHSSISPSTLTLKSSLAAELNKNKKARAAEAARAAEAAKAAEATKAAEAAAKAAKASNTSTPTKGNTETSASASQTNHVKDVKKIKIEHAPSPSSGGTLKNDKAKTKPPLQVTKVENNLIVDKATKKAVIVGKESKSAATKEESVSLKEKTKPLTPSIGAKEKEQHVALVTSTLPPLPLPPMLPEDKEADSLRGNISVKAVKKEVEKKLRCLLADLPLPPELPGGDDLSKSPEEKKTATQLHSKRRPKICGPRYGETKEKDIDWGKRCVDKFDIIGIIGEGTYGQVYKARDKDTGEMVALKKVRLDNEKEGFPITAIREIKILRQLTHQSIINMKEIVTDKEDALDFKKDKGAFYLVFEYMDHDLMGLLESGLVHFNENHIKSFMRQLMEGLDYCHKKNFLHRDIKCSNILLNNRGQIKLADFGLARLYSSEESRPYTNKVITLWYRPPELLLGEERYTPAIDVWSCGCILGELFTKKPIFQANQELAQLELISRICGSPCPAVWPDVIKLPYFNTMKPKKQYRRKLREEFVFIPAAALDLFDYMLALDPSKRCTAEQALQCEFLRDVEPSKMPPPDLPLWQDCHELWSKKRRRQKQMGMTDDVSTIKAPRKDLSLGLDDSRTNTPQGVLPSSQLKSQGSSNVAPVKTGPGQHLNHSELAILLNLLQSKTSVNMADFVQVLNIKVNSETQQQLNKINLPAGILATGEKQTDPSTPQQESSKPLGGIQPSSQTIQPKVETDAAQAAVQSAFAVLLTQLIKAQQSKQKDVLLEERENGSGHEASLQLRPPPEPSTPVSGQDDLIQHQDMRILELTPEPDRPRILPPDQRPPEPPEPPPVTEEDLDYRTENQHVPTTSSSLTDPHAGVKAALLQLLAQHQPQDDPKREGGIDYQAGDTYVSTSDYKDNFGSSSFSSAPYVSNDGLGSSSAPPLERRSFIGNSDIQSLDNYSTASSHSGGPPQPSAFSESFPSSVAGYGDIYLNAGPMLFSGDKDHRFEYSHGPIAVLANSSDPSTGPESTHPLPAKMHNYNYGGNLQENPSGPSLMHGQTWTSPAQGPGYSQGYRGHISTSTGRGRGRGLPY

[12] = target: Cyclin-dependent kinase 14 (Homo sapiens) (UniProt O94921); assay: CDK14/cyclinY(h) Kinase panel; settings: Compound concentration 1.0 uM, tested as the 2H-labelled form
[13] = target: Cyclin-dependent kinase 17 (Homo sapiens) (UniProt Q00537); assay: CDK17/cyclinY(h) Kinase panel; settings: Compound concentration 1.0 uM, tested as the 2H-labelled form
[14] = target: Mast/stem cell growth factor receptor Kit (Homo sapiens) (UniProt P10721); assay: cKit(h) Kinase panel; settings: Compound concentration 1.0 uM, tested as the 2H-labelled form
[15] = target: Serine/threonine-protein kinase DCLK2 (Homo sapiens) (UniProt Q8N568); assay: DCAMKL2(h) Kinase panel; settings: Compound concentration 1.0 uM, tested as the 2H-labelled form
[16] = target: Serine/threonine-protein kinase DCLK3 (Homo sapiens) (UniProt Q9C098); assay: DCAMKL3(h) Kinase panel; settings: Compound concentration 1.0 uM, tested as the 2H-labelled form
[17] = target: Epithelial discoidin domain-containing receptor 1 (Homo sapiens) (UniProt Q08345); assay: DDR1(h) Kinase panel; settings: Compound concentration 1.0 uM, tested as the 2H-labelled form
[18] = target: Discoidin domain-containing receptor 2 (Homo sapiens) (UniProt Q16832); assay: DDR2(h) Kinase panel; settings: Compound concentration 1.0 uM, tested as the 2H-labelled form
Discoidin domain-containing receptor 2 (Homo sapiens), sequence (Q16832 whole entry, the tested form may be a part): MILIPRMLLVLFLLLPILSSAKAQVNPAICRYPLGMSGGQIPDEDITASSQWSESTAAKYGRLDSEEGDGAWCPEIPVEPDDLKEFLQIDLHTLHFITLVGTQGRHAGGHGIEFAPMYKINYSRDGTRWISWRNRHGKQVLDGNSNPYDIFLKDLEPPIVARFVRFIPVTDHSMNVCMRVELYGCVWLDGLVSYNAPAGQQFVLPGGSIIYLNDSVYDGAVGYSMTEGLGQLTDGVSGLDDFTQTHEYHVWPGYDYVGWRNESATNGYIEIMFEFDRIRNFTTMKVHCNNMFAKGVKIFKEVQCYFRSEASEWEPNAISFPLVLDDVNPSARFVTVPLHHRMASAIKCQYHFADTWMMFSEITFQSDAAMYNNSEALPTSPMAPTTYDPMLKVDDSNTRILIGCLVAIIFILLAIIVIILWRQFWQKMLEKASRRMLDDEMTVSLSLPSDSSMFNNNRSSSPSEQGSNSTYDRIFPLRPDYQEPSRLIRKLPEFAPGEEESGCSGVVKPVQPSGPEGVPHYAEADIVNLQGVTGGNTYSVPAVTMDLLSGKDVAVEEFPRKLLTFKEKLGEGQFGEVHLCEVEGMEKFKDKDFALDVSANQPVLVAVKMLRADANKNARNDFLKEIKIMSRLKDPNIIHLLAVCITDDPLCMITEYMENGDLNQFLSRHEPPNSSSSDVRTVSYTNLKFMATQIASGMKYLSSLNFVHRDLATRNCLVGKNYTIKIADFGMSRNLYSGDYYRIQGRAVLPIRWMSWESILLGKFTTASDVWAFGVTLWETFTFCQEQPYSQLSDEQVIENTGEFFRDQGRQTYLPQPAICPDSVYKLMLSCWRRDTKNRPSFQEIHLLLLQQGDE

[19] = target: Serine/threonine-protein kinase 17A (Homo sapiens) (UniProt Q9UEE5); assay: DRAK1(h) Kinase panel; settings: Compound concentration 1.0 uM, tested as the 2H-labelled form
Serine/threonine-protein kinase 17A (Homo sapiens), sequence (Q9UEE5 whole entry): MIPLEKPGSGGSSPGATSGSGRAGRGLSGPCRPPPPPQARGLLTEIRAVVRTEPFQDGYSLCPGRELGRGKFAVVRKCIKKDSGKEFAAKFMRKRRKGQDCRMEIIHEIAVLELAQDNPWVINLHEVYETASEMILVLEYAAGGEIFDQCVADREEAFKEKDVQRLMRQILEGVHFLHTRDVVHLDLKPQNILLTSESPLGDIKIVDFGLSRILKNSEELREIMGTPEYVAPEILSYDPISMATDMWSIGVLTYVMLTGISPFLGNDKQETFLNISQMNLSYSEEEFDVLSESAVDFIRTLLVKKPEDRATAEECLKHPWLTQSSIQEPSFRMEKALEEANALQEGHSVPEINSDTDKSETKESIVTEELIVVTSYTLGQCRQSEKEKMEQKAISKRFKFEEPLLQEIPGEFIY

[20] = target: Dual specificity tyrosine-phosphorylation-regulated kinase 1A (Homo sapiens) (UniProt Q13627); assay: DYRK1A(h) Kinase panel; settings: Compound concentration 1.0 uM, tested as the 2H-labelled form
[21] = target: Epidermal growth factor receptor (Homo sapiens) (UniProt P00533); assay: EGFR(h) Kinase panel; settings: Compound concentration 1.0 uM, tested as the 2H-labelled form
[22] = target: Ephrin type-B receptor 4 (Homo sapiens) (UniProt P54760); assay: EphB4(h) Kinase panel; settings: Compound concentration 1.0 uM, tested as the 2H-labelled form
[23] = target: Homeodomain-interacting protein kinase 1 (Homo sapiens) (UniProt Q86Z02); assay: HIPK1(h) Kinase panel; settings: Compound concentration 1.0 uM, tested as the 2H-labelled form
[24] = target: Inhibitor of nuclear factor kappa-B kinase subunit epsilon (Homo sapiens) (UniProt Q14164); assay: IKKepsilon(h) Kinase panel; settings: Compound concentration 1.0 uM, tested as the 2H-labelled form
[25] = target: Serine/threonine-protein kinase/endoribonuclease IRE1 (Homo sapiens) (UniProt O75460); assay: IRE1(h) Kinase panel; settings: Compound concentration 1.0 uM, tested as the 2H-labelled form
[26] = target: Tyrosine-protein kinase JAK2 (Homo sapiens) (UniProt O60674); assay: JAK2(h) Kinase panel; settings: Compound concentration 1.0 uM, tested as the 2H-labelled form
[27] = target: Tyrosine-protein kinase JAK3 (Homo sapiens) (UniProt P52333); assay: JAK3(h) Kinase panel; settings: Compound concentration 1.0 uM, tested as the 2H-labelled form
[28] = target: Tyrosine-protein kinase Lck (Homo sapiens) (UniProt P06239); assay: Lck(h) activated Kinase panel; settings: Compound concentration 1.0 uM, tested as the 2H-labelled form
[29] = target: Serine/threonine-protein kinase MAK (Homo sapiens) (UniProt P20794); assay: MAK(h) Kinase panel; settings: Compound concentration 1.0 uM, tested as the 2H-labelled form
[30] = target: Mitogen-activated protein kinase kinase kinase 3 (Homo sapiens) (UniProt Q99759); assay: MEKK3(h) Kinase panel; settings: Compound concentration 1.0 uM, tested as the 2H-labelled form
[31] = target: MAP kinase-interacting serine/threonine-protein kinase 2 (Homo sapiens) (UniProt Q9HBH9); assay: Mnk2(h) Kinase panel; settings: Compound concentration 1.0 uM, tested as the 2H-labelled form
MAP kinase-interacting serine/threonine-protein kinase 2 (Homo sapiens), sequence (Q9HBH9 whole entry, looked up): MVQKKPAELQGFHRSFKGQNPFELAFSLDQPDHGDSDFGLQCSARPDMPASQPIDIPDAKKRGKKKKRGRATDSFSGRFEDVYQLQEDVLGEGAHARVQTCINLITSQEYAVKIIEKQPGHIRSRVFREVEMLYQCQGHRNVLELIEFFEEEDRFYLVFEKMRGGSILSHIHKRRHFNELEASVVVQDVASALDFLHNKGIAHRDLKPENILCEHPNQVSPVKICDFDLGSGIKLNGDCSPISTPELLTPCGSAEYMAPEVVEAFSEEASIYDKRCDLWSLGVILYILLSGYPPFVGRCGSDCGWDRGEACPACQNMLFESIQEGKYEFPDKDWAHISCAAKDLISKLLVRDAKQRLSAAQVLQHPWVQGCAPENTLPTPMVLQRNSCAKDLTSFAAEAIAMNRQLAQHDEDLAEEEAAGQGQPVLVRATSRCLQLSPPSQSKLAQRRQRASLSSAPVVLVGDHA

[32] = target: MAPK/MAK/MRK overlapping kinase (Homo sapiens) (UniProt Q9UQ07); assay: MOK(h) Kinase panel; settings: Compound concentration 1.0 uM, tested as the 2H-labelled form
[33] = target: SRSF protein kinase 3 (Homo sapiens) (UniProt Q9UPE1); assay: MSSK1(h) Kinase panel; settings: Compound concentration 1.0 uM, tested as the 2H-labelled form
[34] = target: Serine/threonine-protein kinase PAK 2 (Homo sapiens) (UniProt Q13177); assay: PAK2(h) Kinase panel; settings: Compound concentration 1.0 uM, tested as the 2H-labelled form
[35] = target: Serine/threonine-protein kinase MARK2 (Homo sapiens) (UniProt Q7KZI7); assay: PAR-1Balpha(h) Kinase panel; settings: Compound concentration 1.0 uM, tested as the 2H-labelled form
[36] = target: Protein kinase C beta type (Homo sapiens) (UniProt P05771); assay: PKCbetaII (h) Kinase panel; settings: Compound concentration 1.0 uM, tested as the 2H-labelled form
[37] = target: Protein kinase C theta type (Homo sapiens) (UniProt Q04759); assay: PKCtheta (h) Kinase panel; settings: Compound concentration 1.0 uM, tested as the 2H-labelled form
[38] = target: Serine/threonine-protein kinase D3 (Homo sapiens) (UniProt O94806); assay: PKD3(h) Kinase panel; settings: Compound concentration 1.0 uM, tested as the 2H-labelled form
[39] = target: cGMP-dependent protein kinase 1 (Homo sapiens) (UniProt Q13976); assay: PKG1alpha (h) Kinase panel; settings: Compound concentration 1.0 uM, tested as the 2H-labelled form
[40] = target: SRSF protein kinase 1 (Homo sapiens) (UniProt Q96SB4); assay: SRPK1(h) Kinase panel; settings: Compound concentration 1.0 uM, tested as the 2H-labelled form
[41] = target: Tyrosine-protein kinase SYK (Homo sapiens) (UniProt P43405); assay: Syk(h) Kinase panel; settings: Compound concentration 1.0 uM, tested as the 2H-labelled form
[42] = target: Mitogen-activated protein kinase kinase kinase 7 (Homo sapiens) (UniProt O43318); assay: TAK1(h) Kinase panel; settings: Compound concentration 1.0 uM, tested as the 2H-labelled form
[43] = target: Tribbles homolog 2 (Homo sapiens) (UniProt Q92519); assay: TRB2(h) Kinase panel; settings: Compound concentration 1.0 uM, tested as the 2H-labelled form
[44] = target: NT-3 growth factor receptor (Homo sapiens) (UniProt Q16288); assay: TrkC(h) Kinase panel; settings: Compound concentration 1.0 uM, tested as the 2H-labelled form
[45] = target: Dual specificity protein kinase TTK (Homo sapiens) (UniProt P33981); assay: TTK(h) Kinase panel; settings: Compound concentration 1.0 uM, tested as the 2H-labelled form
[46] = target: Serine/threonine-protein kinase ULK1 (Homo sapiens) (UniProt O75385); assay: ULK1(h) Kinase panel; settings: Compound concentration 1.0 uM, tested as the 2H-labelled form
Serine/threonine-protein kinase ULK1 (Homo sapiens), sequence (O75385 whole entry): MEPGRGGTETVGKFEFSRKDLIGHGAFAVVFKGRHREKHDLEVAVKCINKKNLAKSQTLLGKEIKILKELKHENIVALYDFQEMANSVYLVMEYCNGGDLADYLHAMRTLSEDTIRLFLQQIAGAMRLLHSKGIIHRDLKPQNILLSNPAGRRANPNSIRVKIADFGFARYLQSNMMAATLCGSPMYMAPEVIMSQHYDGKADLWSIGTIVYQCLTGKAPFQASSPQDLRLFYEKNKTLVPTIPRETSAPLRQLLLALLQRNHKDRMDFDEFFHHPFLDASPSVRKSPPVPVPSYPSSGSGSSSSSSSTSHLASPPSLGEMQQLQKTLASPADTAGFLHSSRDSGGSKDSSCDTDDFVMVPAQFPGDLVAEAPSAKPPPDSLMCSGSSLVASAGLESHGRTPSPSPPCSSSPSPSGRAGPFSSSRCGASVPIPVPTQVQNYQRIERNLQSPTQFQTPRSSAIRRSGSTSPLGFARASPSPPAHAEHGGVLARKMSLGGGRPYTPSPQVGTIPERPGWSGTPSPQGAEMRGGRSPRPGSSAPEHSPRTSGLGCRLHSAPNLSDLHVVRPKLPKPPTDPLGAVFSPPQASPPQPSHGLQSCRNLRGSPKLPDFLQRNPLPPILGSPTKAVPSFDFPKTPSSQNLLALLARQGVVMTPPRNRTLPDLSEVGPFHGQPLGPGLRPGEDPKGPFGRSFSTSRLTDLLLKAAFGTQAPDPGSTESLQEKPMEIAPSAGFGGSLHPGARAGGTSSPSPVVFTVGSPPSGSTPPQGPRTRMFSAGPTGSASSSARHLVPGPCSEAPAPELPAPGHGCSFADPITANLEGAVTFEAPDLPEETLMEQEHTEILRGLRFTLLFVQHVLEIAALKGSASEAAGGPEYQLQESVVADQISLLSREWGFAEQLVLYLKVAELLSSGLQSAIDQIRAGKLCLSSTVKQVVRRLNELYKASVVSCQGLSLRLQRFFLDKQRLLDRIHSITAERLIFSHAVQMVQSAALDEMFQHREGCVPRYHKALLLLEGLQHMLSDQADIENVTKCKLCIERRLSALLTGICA

[47] = target: Serine/threonine-protein kinase WNK1 (Homo sapiens) (UniProt Q9H4A3); assay: WNK1(h) Kinase panel; settings: Compound concentration 1.0 uM, tested as the 2H-labelled form
[48] = target: Phosphatidylinositol 5-phosphate 4-kinase type-2 alpha (Homo sapiens) (UniProt P48426); assay: PIP4K2a(h) Kinase panel; settings: Compound concentration 1.0 uM, tested as the 2H-labelled form
[49] = target: 5-hydroxytryptamine receptor 1D (Homo sapiens) (UniProt P28221); settings: Compound concentration 10.0 uM, tested as the 2H-labelled form
[50] = target: Sodium-dependent dopamine transporter (Homo sapiens, UniProt Q01959); settings: Compound concentration 10.0 uM, tested as the 2H-labelled form
[51] = target: Alpha-1D adrenergic receptor (Homo sapiens) (UniProt P25100); settings: Compound concentration 10.0 uM, tested as the 2H-labelled form

Measured: inhibition

CC1(C)Cn2nc(-c3ccc(F)cn3)c(-c3ccnc4[nH]ncc34)c2CO1
inactive: [1] 5% | [2] -1% | [3] 7% | [4] -6% | [5] -2% | [6] 5% | [7] 4% | [8] -2% | [9] 7% | [10] 13% | [11] 0% | [12] 9% | [13] 6% | [14] -6% | [15] 37% | [16] -6% | [17] 11% | [18] 8% | [19] 14% | [20] 0% | [21] -8% | [22] -2% | [23] 3% | [24] -1% | [25] 0% | [26] 1% | [27] 0% | [28] -10% | [29] 10% | [30] -4% | [31] 20% | [32] -9% | [33] -8% | [34] -10% | [35] 15% | [36] -3% | [37] 9% | [38] 17% | [39] -9% | [40] 2% | [41] -8% | [42] -5% | [43] -2% | [44] 23% | [45] 10% | [46] 9% | [47] 7% | [48] 0% | [49] 33.4% | [50] 43.8% | [51] 8.27%
